Where “and” joins values, the source holds several entries; their conditions need not be identical. Equal values may be shown once.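 1) Cells in 96-well plates. 2) Compound, 48 h, 5 concentrations. 3) Linear interpolation between surrounding doses. 4) Unreached endpoint = highest concentration. GI50 is the concentration that inhibits growth by half. The concentration for full growth arrest is given as TGI.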 Where a SMILES comes first, the peptide text is derived from it. Bridges are numbered along the chain shown (N, C = ends). [ ]: non-standard residue; d: D form. The star is where a group is joined. ξ: configuration not given here. X26 = O=C(/C=C/C=C/C=C/C=C/C=C/C(=O)*)NC1=C(O)CCC1=O; NMeA = CN[C@@H](C)C(=O)O; ξF = NC(Cc1ccccc1)C(=O)O; ξA = CC(N)C(=O)O
How the values were obtained:
Experiment in all cases: inhibition of tumour cell growth, NCI panel, 48 h
786-0 renal = system: 786-0 renal
NCI-H23 lung = system: NCI-H23 lung
MDA-N = system: MDA-N
SNB-19 CNS = system: SNB-19 CNS
MCF7 breast = system: MCF7 breast
NCI/ADR-RES ovarian = system: NCI/ADR-RES ovarian
SK-MEL-5 melanoma = system: SK-MEL-5 melanoma
MOLT-4 leukemia = system: MOLT-4 leukemia
UACC-257 melanoma = system: UACC-257 melanoma
A549 NSCLC = system: A549 NSCLC
SR leukemia = system: SR leukemia

Row | SMILES | TGI (786-0 renal) [µM] | TGI (NCI-H23 lung) [µM] | TGI (MDA-N) [µM] | TGI (SNB-19 CNS) [µM] | TGI (MCF7 breast) [µM] | TGI (NCI/ADR-RES ovarian) [µM] | TGI (SK-MEL-5 melanoma) [µM] | TGI (MOLT-4 leukemia) [µM] | TGI (UACC-257 melanoma) [µM] | TGI (A549 NSCLC) [µM] | TGI (SR leukemia) [µM] | GI50 (SR leukemia) | GI50 (MOLT-4 leukemia) | GI50 (NCI-H23 lung) [µM] | GI50 (NCI/ADR-RES ovarian) [µM] | GI50 (SK-MEL-5 melanoma) [µM] | GI50 (UACC-257 melanoma) [µM]
1 | Nc1nc(Cl)cc(NCC2(CO)CCC(CCc3ccccc3)C2)n1 (stereo unspecified) | 31.9 | 25.1 | 28.1 | 31.3 | 32.7 | 51.2 | 15.6 | 11.7 | 22.6 | 32 |  |  |  |  |  |  | 
2 | c1ccc2c(c1)c1c(n2CCOCCN2CCOCC2)CCCC1 |  | > 100 | > 100 | > 100 | > 100 | 54.9 | 48.9 | 69.8 | 47.8 | > 100 | > 100 |  |  |  |  |  | 
3 | CC1CN=C(N(C(=O)Nc2ccc(F)c(Cl)c2)c2ccccc2)S1 (stereo unspecified) | 56 | 52 | 34.7 | > 100 | 25.9 | 43 | 30 | 62.2 | 58.7 | 92.1 |  |  |  |  |  |  | 
4 | Cc1cn([C@@H]2C[C@H](CO)[C@@H](O)C2)c(=O)[nH]c1=O |  | > 100 |  | > 100 |  |  |  | > 100 | > 100 | > 100 |  |  |  |  |  |  | 
5 | CC(C)=CCC/C(C)=C/COC(C)(C)C1=CCC(C)CC1 (stereo unspecified) (tested in a mixture with another compound) | > 100 | > 100 | > 100 | > 100 | > 100 |  | > 100 | 36.2 | > 100 | > 100 | 36.1 |  |  |  |  |  | 
6 | Cn1ccnc1C(O)(c1nccn1C)c1nccn1C |  | > 100 |  | > 100 |  |  | > 100 |  | > 100 |  | > 100 |  |  |  |  |  | 
7 | O=c1ccn(C2OC(CO)C(P(=O)(O)O)C2O)c(=O)[nH]1 (stereo unspecified) | > 100 | > 100 | > 100 | > 100 | > 100 |  | > 100 | > 100 | > 100 | > 100 | > 100 |  |  |  |  |  | 
8 | CSC(=Nc1ccccc1)N(c1ccccc1)c1nc(=[N+](C)C)ss1 | 19.3 | 19.8 |  | 15.4 |  |  | 5.15 | 7.54 | 4.96 | 33.7 | 8.01 |  |  |  |  |  | 
9 | Cc1ccc(CC[P+](=O)CCc2ccc(C)nc2)cn1 | > 100 | > 100 | > 100 | > 100 | > 100 | > 100 | > 100 | > 100 | > 100 |  | > 100 |  |  |  |  |  | 
10 | CC(=O)OCC1OC(n2cc(I)c(=O)[nH]c2=O)C(OC(C)=O)C(OC(C)=O)C1OC(C)=O (stereo unspecified) | > 100 | > 100 |  | > 100 |  |  | > 100 | > 100 | > 100 | > 100 | > 100 |  |  |  |  |  | 
11 | O=C1Sc2ccccc2C(=O)N2CSCC12 (stereo unspecified) | > 100 | > 100 |  | > 100 |  |  | > 100 | > 100 | > 100 | > 100 | > 100 |  |  |  |  |  | 
12 | CCOC(=O)C1(C(=O)OCC)COS(=O)OC1 |  | > 100 | > 100 | > 100 | 36.6 | > 100 | > 100 | 56.4 | > 100 | > 100 | > 100 |  |  |  |  |  | 
13 | N#CC1=C(c2ccccc2)NNC(c2ccc(Cl)cc2)CC1=O (stereo unspecified) |  | > 100 |  | > 100 |  |  | 68.2 | > 100 | > 100 | > 100 | > 100 |  |  |  |  |  | 
14 | Nc1ccc(-c2nc3ccccc3s2)cc1C(F)(F)F | 26.6 | 28 | 26.4 | 33.2 | 19.4 | 35.2 | 30.6 | 52.4 | 29 | 37.4 |  |  |  |  |  |  | 
15 | CCOC(=O)c1nc2ccc(C(F)(F)F)cc2nc1Oc1ccc(C#N)cc1 | 35.6 | > 100 |  | 35.3 | 37.7 | 48.9 | > 100 | > 100 | 65.8 |  | > 100 |  |  |  |  |  | 
16 | CC1NC(=O)[C@H](C)N(C)C(=O)[C@@H]2CCCN2C(=O)[C@@H](NC(=O)C(Cc2ccccc2)NC(=O)/C=C/C=C/C=C/C=C/C=C/C(=O)NC2=C(O)CCC2=O)COC(=O)[C@@H]2CCCN2C1=O (stereo partly specified) (X26-[ξF]SP[NMeA][ξA]P; ester 2-C) | > 100 | > 100 | > 100 | > 100 | > 100 | > 100 | > 100 |  | > 100 | > 100 | > 100 |  |  |  |  |  | 
17 | Cc1c(N2C(=O)C(Cl)C2c2ccc(Cl)cc2)c(=O)n(-c2ccccc2)n1C (stereo unspecified) | > 100 | 85.1 | 81.3 |  | > 100 | > 100 | > 100 | > 100 | 48.1 | > 100 | > 100 |  |  |  |  |  | 
18 | C[C@]12CC[C@@H]3c4ccc(O)cc4CC[C@H]3[C@@H]1C/C(=C\c1ccncc1)[C@@H]2O | 80.9 | 22.5 | > 100 | > 100 | 30.2 | 33.5 | 17.3 | 40.8 | > 100 | > 100 |  |  |  |  |  |  | 
19 | COc1nc2ncc([C@@H](OC(C)=O)[C@@H](COC(C)=O)OC(C)=O)nc2c(=O)[nH]1 | > 100 |  | > 100 | > 100 | > 100 | > 100 | > 100 | > 100 | > 100 | > 100 | > 100 | > 100 µM and 39.4 µM | > 100 µM and 49.9 µM |  |  |  | 
20 | N=C(N)c1ccc(-c2ccc(-c3cccs3)s2)cc1 |  | 4.86 |  |  |  | 4.49 | 2.99 |  | 3.15 |  |  |  |  | 1.98 | 1.94 | 1.6 | 1.72
21 | Cc1ccc(OCCn2cc(Nc3ccccc3)c(=O)n(CCOc3ccc(C)cc3)c2=O)cc1 | > 100 | > 100 | > 100 | > 100 | > 100 | > 100 | > 100 | > 100 | > 100 | > 100 |  |  |  |  |  |  | 
22 | Nc1nc(N)c(N=O)c(Nc2ccc(Br)cc2)n1 | > 100 | > 100 |  | > 100 |  |  |  |  | 77 | > 100 | > 100 |  |  |  |  |  | 
